Source: patent US20180002400A1, “SHORT PEPTIDE-BASED THERAPEUTIC AGENT AND MEDICINAL COMPOSITION INCLUDING THE SAME FOR INHIBITING ACTIVITIES OF CANCER CELLS” (NATIONAL CHENG KUNG UNIVERSITY, priority 2015, published 2018)

Experiments:
Assay type in all cases: cell-based, human
[1] = system: drug-resistant breast cancer MB231R (MBR) cells; test: Cancer cell migration (Boyden chamber) induced by euPTX3
Description: [The procedure below names another cell line; the source lists this cell line under the same test.] (§1) The cell density 5×10^4 cells/well of the breast cancer MB231 cell, the lung cancer A549 cell and the nasopharyngeal cancer HONE1 cell were seeded into each upper insert of 24-well plate (containing 8-μm pore insert per well; BD Biosciences) for 19 hours, and each lower well was added with the short peptides RI37, GI40 and KT44 (10 μg/mL or 225 nM of the short peptide) and the polypeptide euPTX3 (2.5 μg/mL) of Example 1, for evaluating the influence of migration of the cancer cell of Example 2 using several short peptides of Example 1.
(§2) The cell density 5×10^4 cells/well of the breast cancer MB231 cell, the lung cancer A549 cell and the nasopharyngeal cancer HONE1 cell were seeded into each upper insert of Boyden chamber for 3 hours of cultivation.
(§3) And then, the medium in each upper insert was replaced by serum-free medium, and the medium in each lower well was added with the short peptides RI37, GI40, KT44 and the polypeptide euPTX3 of Example 1. The cells inside each upper insert were wiped with cotton swabs and removed after 16 hours of cultivation. Remaining cells that had migrated to the bottom of the insert membrane were stained by 4′,6-diamidino-2-phenylindole (DAPI; Invitrogen) and calculated under fluorescence microscopy with 200-fold magnification.

lung cancer A549 cell [2] = test: as above; conditions: A549; short peptide 10 μg/mL + euPTX3 2.5 μg/mL; FIG. 2C left panel
Description: as §1, §2, §3

[3] = system: nasopharyngeal cancer HONE1 cell; test: as above; conditions: HONE1; short peptide 10 μg/mL + euPTX3 2.5 μg/mL; FIG. 3C left panel
Description: as §1, §2, §3

[4] = system: drug-resistant breast cancer MB231R (MBR) cells; test: Cancer cell invasion (matrigel-coated insert) induced by euPTX3
lung cancer A549 cell [5] = test: as above; conditions: A549; short peptide 10 μg/mL + euPTX3 2.5 μg/mL; FIG. 2C right panel
Description: (§4) The cell density 5×10^4 cells/well of the breast cancer MB231 cell, the lung cancer A549 cell and the nasopharyngeal cancer HONE1 cell were seeded into each upper insert of 24-well plate (containing 8-μm pore insert per well; BD Biosciences), the upper insert and the lower well were separated by the polyethelene terephthalate membrane coated with matrigel (purchased from BD Bioscience), and cultured for 3 hours.
as §3, with “Next,” for “And then,”, “euPTX3 and pPTX3/C” for “euPTX3”, “4′, 6-diamidino-2-phenylindole” for “4′,6-diamidino-2-phenylindole”

[6] = system: nasopharyngeal cancer HONE1 cell; test: as above; conditions: HONE1; short peptide 10 μg/mL + euPTX3 2.5 μg/mL; FIG. 3C right panel
Description: as §4
as §3, with “Next,” for “And then,”, “euPTX3 and pPTX3/C” for “euPTX3”, “4′, 6-diamidino-2-phenylindole” for “4′,6-diamidino-2-phenylindole”

[7] = MB231R (MBR), identical molecular number: euPTX3 2.5 μg/mL, RI37 3.7 μg/mL, GI40 4 μg/mL, pPTX3/C 10 μg/mL, FIG. 5B left panel
[8] = breast cancer cells, short peptide 10 μg/mL + euPTX3 2.5 μg/mL, FIG. 1E left panel
[9] = MB231R (MBR), identical molecular number: euPTX3 2.5 μg/mL, RI37 3.7 μg/mL, GI40 4 μg/mL, pPTX3/C 10 μg/mL, FIG. 5B right panel
[10] = breast cancer cells, short peptide 10 μg/mL + euPTX3 2.5 μg/mL, FIG. 1E right panel

Substance | migrated cell numbers induced by the polypeptide euPTX3 [1, 7] | migrated cell numbers induced by the polypeptide euPTX3 [1, 8] | migrated cell numbers induced by the polypeptide euPTX3 (lung cancer A549 cell [2]) | migrated cell numbers induced by the polypeptide euPTX3 [3] | invasive cell numbers induced by the polypeptide euPTX3 [4, 9] | invasive cell numbers induced by the polypeptide euPTX3 [4, 10] | invasive cell numbers induced by the polypeptide euPTX3 (lung cancer A549 cell [5]) | invasive cell numbers induced by the polypeptide euPTX3 [6]
GI40: artificially synthetic short peptide having the amino acid sequence listed as SEQ ID NO:2, designed from human PTX3 (NP_002843.2) (GGGFDETLAFSGRLTGFNIWDSVLSNEEIRETGGAESCHI; The 320th amino acid to 359th amino acid of Human sapiens PTX3 (GI40)) | could effectively inhibit the migrated cell numbers | could effectively inhibit the migrated cell numbers | could effectively inhibit the migrated cell numbers | could effectively inhibit the migrated cell numbers | could effectively inhibit the invasive cell numbers | could effectively inhibit the invasive cell numbers | could effectively inhibit the invasive cell numbers | could effectively inhibit the invasive cell numbers
KT44: artificially synthetic peptide having the amino acid sequence listed as SEQ ID NO:3 (KLVAEAMVSLGRWTHLCGTWNSEEGLTSLWVNGELAATTVEMAT; The 255th amino acid to 298th amino acid of Human sapiens PTX3 (KT44)) |  | could not inhibit the migrated cell numbers | could not inhibit the migrated cell numbers | could not inhibit the migrated cell numbers |  | could not inhibit the invasive cell numbers | could not inhibit the invasive cell numbers | could not inhibit the invasive cell numbers
RI37: artificially synthetic short peptide having the amino acid sequence listed as SEQ ID NO:1, designed from human PTX3 (NP_002843.2) (RPMRLESFSACIWVKATDVLNKTILFSYGTKRNPYEI; The 200th amino acid to 236th amino acid of Human sapiens PTX3 (RI37)) | could effectively inhibit the migrated cell numbers | could effectively inhibit the migrated cell numbers | could effectively inhibit the migrated cell numbers | could effectively inhibit the migrated cell numbers | could effectively inhibit the invasive cell numbers | could effectively inhibit the invasive cell numbers | could effectively inhibit the invasive cell numbers | could effectively inhibit the invasive cell numbers
